Patent US4368203A, “Antibiotics and derivatives thereof having β-lactamase inhibitory activity and production thereof” (priority 1977, dated 1983)
In brackets after ≈: the same amount, converted by molar mass. Entries after “also recorded” stand apart in the source; their conditions may differ. Like-named read-outs stand apart in the source and are kept apart here.

Tests used:
[1] = system: Alcaligenes faecalis B-326; assay: MIC, broth dilution method; type: cell-based; details: Alcaligenes faecalis, B326, 20 h, read-out: Minimum inhibitory concentration
Description: (§1) Sodium salt of the antibiotic PS-7 was dissolved and diluted with the BRAIN HEART INFUSION BROTH "Eiken" at a concentration between 5 μg/ml and 100 μg/ml. The solution was further diluted with the same medium to obtain a series of geometric concentrations. To the serial dilutions were added the seed cultures prepared by shaking culture of various test microorganisms shown in Tab. 5 in the BRAIN HEART INFUSION GROTH at 28° C. for 18 hours, the final cell count being about 1×10^5 /ml. […] The lowest concentration at which no cell growth was observed was the minimum inhibitory concentration of the antibiotic PS-7 on the test microorganism. […] . The minimum inhibitory concentrations on test strains were determined in the same manner as mentioned above. […] For the comparison, the results on the known antibiotics Cephazolin and Cefoxitin are also given in the same table.

[2] = system: Citrobacter freundii E-9; assay: MIC, broth dilution method; type: cell-based; details: Citrobacter freundii, E9, 20 h, lactamase producing organism, read-out: Minimum inhibitory concentration
Description: as §1

[3] = system: Diplococcus pneumoniae Type III; assay: MIC, broth dilution method; type: cell-based; details: Streptococcus pneumoniae, 20 h, 10% of horse blood in the medium, read-out: Minimum inhibitory concentration
Description: as §1

[4] = system: Staphylococcus aureus FDA 209P; assay: MIC, broth dilution method; type: cell-based; details: FDA209P, 20 h, final methanol not above 10%, read-out: Minimum inhibitory concentration
Description: as §1

[5] = system: Enterobacter cloacae E-16; assay: MIC, broth dilution method; type: cell-based; details: Enterobacter cloacae, E16, 20 h, lactamase producing organism, read-out: Minimum inhibitory concentration
Description: Sodium salt of the antibiotic PS-7 was dissolved and diluted with the BRAIN HEART INFUSION BROTH "Eiken" at a concentration between 5 μg/ml and 100 μg/ml. The solution was further diluted with the same medium to obtain a series of geometric concentrations. To the serial dilutions were added the seed cultures prepared by shaking culture of various test microorganisms shown in Tab. 5 in the BRAIN HEART INFUSION GROTH at 28° C. for 18 hours, the final cell count being about 1×10^5 /ml. […] The lowest concentration at which no cell growth was observed was the minimum inhibitory concentration of the antibiotic PS-7 on the test microorganism. […] The minimum inhibitory concentrations on test strains were determined in the same manner as mentioned above.

[6] = system: Staphylococcus aureus Smith; assay: In vivo activity in intraperitoneally infected mice; design: species or system DDY male mice; details: for ED50: Staphylococcus aureus, sc, mice infected i.p. with 5×10^5 cells/mouse, subcutaneous injection just after infection, read-out: 50% curative dose (CD50); for Therapeutic effect in infected mice: mice infected with pathogenic Gram-positive bacteria
Description: Soon after infection, an aqueous solution of the antibiotic PS-5 sodium salt preparation was subcutaneously injected.
Activity of the antibiotic PS-7 obtained above was determined using mice infected with Staphylococcus aureus Smith at 5×10^5 cells a mouse intraperitoneally. Sodium salt of the antibiotic PS-7 was administered to the mice subcutaneously immediately after the infection.
The tritylation product of antibiotic PS-6 was subcutaneously injected just after infection. The 50% curative dose on male DDY mice (SHIZUOKA) was 5.5 mg/kg.
The tritylation product of antibiotic PS-7 was subcutaneously injected just after infection. The 50% curative dose on make DDY mice (SHIZUOKA) was 4.5 mg/kg.

[7] = Acute toxicity, intraperitoneal administration; type: in vivo, DDY male mice; details: mice, 500 mg/kg
[8] = Solubility; type: physicochemical; details: 5 mg in 0.1 ml of solvent, shaking, 20° C.; for Solubility in organic solvents: solvents named in the value
Excerpt: The results are as shown as below:
The results are as shown below:

[9] = Stability (general statements); type: physicochemical; details: general statement
[10] = system: Gram-positive and Gram-negative bacteria; assay: Antibiotic spectra (summary in words); type: cell-based; details: for Antibiotic activity against Gram-negative bacteria resistant to β-lactam antibiotics: genera Citrobacter, Proteus, Klebsiella, Enterobacter, Serratia as named at the place; for Antibiotic activity against Gram-positive bacteria: genera Staphylococcus, Diplococcus, Streptococcus, Bacillus as named at the place
[11] = system: Streptococcus pyogenes NY-5; assay: MIC, broth dilution method; details: Streptococcus pyogenes, NY5, 20 h, read-out: Minimum inhibitory concentration
[12] = system: Klebsiella pneumoniae K-2; assay: MIC, broth dilution method; details: Klebsiella pneumoniae, K2, 20 h, read-out: Minimum inhibitory concentration
[13] = system: Proteus vulgaris P-5; assay: MIC, broth dilution method; details: Proteus vulgaris, P5, 20 h, read-out: Minimum inhibitory concentration
[14] = system: Proteus vulgaris P-5; assay: Potentiating and synergistic effect, pulp disc inhibition zone on agar plate; type: cell-based
Description: (§2) 10 ml of 2.5 folds diluted nutrient agar (pH 7.0) containing 50 μg/ml of penicillin G or cephaloridine was seeded with the β-lactamase producing and β-lactam-resistant microorganisms and poured in a 9 cm Petri dish to provide the bio-assay agar plate. […] A control assay plate was similarly prepared without penicillin G or cephaloridine. As reference antibiotics, 10,000 μg/ml of penicillin G or 20 μl of cephaloridine were disc-assayed under the same conditions.
(§3) Cepholoridine was added to a 2.5-times diluted nutrient agar, pH 7.0 and the medium was inoculated with a β-lactam-producing strain that produceds β-lactamase. Ten ml of the medium was spread and solidified in a petri dish of 9 cm in diameter to prepare an assay plate. […] Each 20 μl of the solution and its 2- and 4-times diluted solutions was soaked in a pulp disc of 8 mm in diameter. To the surface of the above nutrient agar was placed the pulp disc and the size of the growth inhibitory zone around the disc was examined after incubation at 35° C. for 18 hours. […] In addition, for the comparison, a similar experiment was also performed with a pulp disk soaked with 20 μl of 10,000 μg/ml Penicillin G or Cepholoridine solution in place of the antibiotic PS-7.

[15] = system: Citrobacter freundii E-9; assay: as above; type: cell-based
Description: (§4) 10 ml of 2.5 folds diluted nutrient agar (pH 7.0) containing 50 μg/ml of penicillin G or cephaloridine was seeded with the β-lactamase producing and β-lactam-resistant microorganisms and poured in a 9 cm Petri dish to provide the bio-assay agar plate. On this assay plate, 8 mm of pulp discs each containing 20 μl of antibiotic PS-6 solution at the concentration of 240 μg/ml were placed and incubated at 35° C. for 18 hours before reading the inhibition zones. A control assay plate was similarly prepared without penicillin G or cephaloridine. As reference antibiotics, 10,000 μg/ml of penicillin G or 20 μl of cephaloridine were disc-assayed under the same conditions.

[16] = system: Serratia marcescens S-18; assay: as above; type: cell-based
Description: as §4

[17] = system: β-lactamase-producing, β-lactam-resistant bacteria; assay: Increase of the antibiotic activity of other antibiotics (summary in words); type: cell-based; details: β-lactamase-producing bacteria such as Proteus vulgaris, Serratia marcescens
Description: as §2, §3

[18] = Table 6, agar containing 50 μg/ml of cephaloridine, disc 20 μl, PS-6 240 μg/ml, reference antibiotics 10,000 μg/ml
[19] = Table 6, agar containing 50 μg/ml of penicillin G, disc 20 μl, PS-6 240 μg/ml, reference antibiotics 10,000 μg/ml

Structure (SMILES) | ED50 [6] | Therapeutic effect in infected mice [6] | Acute toxicity [7] | Solubility in water [8] | Solubility in organic solvents [8] | Stability [9] | Antibiotic activity against Gram-negative bacteria of the genera Klebsiella, Proteus [10] | Antibiotic activity against Gram-negative bacteria of the genus Alcaligenes (Comamonas) [10] | Antibiotic activity against Gram-negative bacteria resistant to β-lactam antibiotics [10] | Antibiotic activity against Gram-positive bacteria [10] | MIC [11] | MIC [12] | MIC [13] | other results
CC(=O)NCCSC1=C(C(=O)OC(c2ccccc2)(c2ccccc2)c2ccccc2)N2C(=O)C(C(C)C)C2C1 (stereo not drawn) [Antibiotic PS-6 trityl ester] | 5.5 mg/kg | marked therapeutic effect | no acute toxicity | Substantially insoluble | Substantially insoluble in water and n-hexane; also recorded: Highly soluble in benzene, ethyl acetate, chloroform, methanol, ethanol, acetone, dimethylformamide (DMF) and dimethylsulfoxide (DMSO) | more stable than antibiotic PS-6 or PS-7 | good activity | very strong activity | strong activity | very strong activity | 0.33 µg/mL (≈ 0.595 µM) | 20 µg/mL (≈ 36.1 µM) | 25 µg/mL (≈ 45.1 µM) | MIC ([1]; Table 9): 1.34 µg/mL (≈ 2.42 µM); MIC ([2]; Table 9): 12.5 µg/mL (≈ 22.5 µM); MIC ([3]; Table 9): 0.33 µg/mL (≈ 0.595 µM); MIC ([4]; Table 9, ester dissolved in methanol): 0.33 µg/mL (≈ 0.595 µM); MIC ([5]; Table 9): 25 µg/mL (≈ 45.1 µM); Antibiotic activity against Gram-negative bacteria resistant to β-lactam antibiotics ([10]; listed as trityl ester of antibiotic PS-6): strong antibiotic activity
CC1(C)S[C@@H]2[C@H](NC(=O)Cc3ccccc3)C(=O)N2[C@H]1C(=O)O [penicillin G] | – | – | – | – | – | – | – | – | – | – | – | – | – | zone of inhibition at 10000 µg/mL ([14]; Proteus vulgaris, P5, 18 h, read-out: Diameter of inhibitory zone, No addition): 15 mm; zone of inhibition at 240 µg/mL ([14]; Proteus vulgaris, P5, 18 h, read-out: Inhibition zone, Control): 15 mm; Inhibition zone, with cephaloridine [14, 18]: 15.0 mm; Inhibition zone, with penicillin G [14, 19]: 15.0 mm; Diameter of inhibitory zone, Cephaloridine-added ([14]; Table 8, comparison disc 20 μl of 10,000 μg/ml, cephaloridine in the agar): 15.0 mm; zone of inhibition at 240 µg/mL ([15]; Citrobacter freundii, E9, 18 h, read-out: Inhibition zone, Control): 0 mm; Inhibition zone, with cephaloridine [15, 18]: 0.0 mm; Inhibition zone, with penicillin G [15, 19]: 0.0 mm; zone of inhibition at 240 µg/mL ([16]; Serratia marcescens, S18, 18 h, read-out: Inhibition zone, Control): 0 mm; Inhibition zone, with cephaloridine [16, 18]: 0.0 mm; Inhibition zone, with penicillin G [16, 19]: 0.0 mm; Synergistic enhancement of the activity of penicillin G or cephaloridine (β-lactam antibiotics) [17]: no synergistic effect; Synergistic enhancement of the activity of penicillin G or cephaloridine (β-lactam antibiotics) ([17]; listed as Penicillin G): No enhancement of antimicrobial activity
CCC1C(=O)N2C(C(=O)OC(c3ccccc3)(c3ccccc3)c3ccccc3)=C(SC=CNC(C)=O)CC12 (stereo not drawn) [Antibiotic PS-7 trityl ester] | 4.5 mg/kg | marked therapeutic effect | no acute toxicity | Substantially insoluble | Highly soluble in benzene ethyl acetate, chloroform, methanol, ethanol, acetone, dimethylformamide (DMF) and dimethylsulfoxide (DMSO); also recorded: Substantially insoluble in water and n-hexane | more stable than antibiotic PS-6 or PS-7 | good activity | very strong activity | strong activity | very strong activity | 0.16 µg/mL (≈ 0.297 µM) | 10 µg/mL (≈ 18.6 µM) | 25 µg/mL (≈ 46.4 µM) | MIC ([1]; Table 10): 1.34 µg/mL (≈ 2.49 µM); MIC ([2]; Table 10): 6.25 µg/mL (≈ 11.6 µM); MIC ([3]; Table 10): 0.16 µg/mL (≈ 0.297 µM); MIC ([4]; Table 10, ester dissolved in methanol): 0.16 µg/mL (≈ 0.297 µM); MIC ([5]; Table 10): 25 µg/mL (≈ 46.4 µM); Antibiotic activity against Gram-negative bacteria resistant to β-lactam antibiotics ([10]; listed as trityl ester of antibiotic PS-7): strong antibiotic activity
